Measurements taken from patent US9572882B2, “Compositions and methods for improving cardiovascular function” (RiboCor, INC., priority 2000, dated 2017).
“Also recorded” adds a separate entry of the source. Like-named read-outs stand apart in the source and are kept apart here.

Tests used:
plasma homocysteine = conditions: cited from earlier work
[1] = system: patients with cardiovascular disease; athletes; conditions: cited from earlier work
[2] = system: patients with chronic coronary artery disease with stable angina pectoris and chronic heart failure, class II and III; experiment: Transthoracic echocardiography in double-blinded, randomized, crossover clinical study of ribose vs placebo; type: in vivo, human; conditions: oral
From the text: (§1) A double-blinded, randomized, crossover clinical study was initiated to determine whether patients with cardiovascular disease could find a ribose benefit at lower, safer doses. Patients with known chronic coronary artery disease with stable angina pectoris and chronic heart failure, class II and III (New York Classification, NYHA) were selected for the study. […] All patients were being treated with nitrates, molsidim and beta blockers. Three patients were also on diltiazem and an additional three on trapidil. Medications were not altered during the study. Exclusion criteria included patients <18 years of age, those with severe concurrent disease (renal failure, diabetes mellitus, neoplasia), evidence of hyperthyroidism and inability to follow the protocol.
The study consisted of two treatment periods, three weeks in duration. Initially, either ribose or placebo (dextrose) was administered three times a day with meals. Five grams of either ribose of or placebo was dissolved in approximately eight ounces of fluid shortly before administration. Following the initial treatment period, the patients were given no ribose or placebo treatment for one week as a washout period. The patients were then given the alternate treatment for three weeks for the crossover phase of the study.
Measured objectives parameters of systolic and diastolic function were assessed with transthoracic echocardiography. Subjectively, quality of life using the SF36 form, and physical function (exercise tolerance) were assessed. All of the above parameters were assessed at pre- and post-treatment in both arms of the study.
Each echocardiographic assessment was performed by the same clinical individual and accumulated data were analyzed by two cardiologists in a blinded manner, with a consensus establishing a final result. All studies were conducted with commercially available equipment (System V, GE, Norway). To allow off-line quantitative analysis of the echocardiographic data, studies were recorded on videotape with selected cine-loops and velocity spectra digitally transferred to a Macintosh G4 computer (Apple Computers, CA) for subsequent analysis. Software provided by the manufacturer (Echopac®, GE, Norway) was used for data evaluation.
Each echocardiographic assessment was performed transthoracically and a 1.7/3.4 MHZ harmonic transducer was used with the patient examined in the left lateral decubitus position. A one-lead electrocardiogram was recorded continuously during echocardiographic assessment. The M-Mode left atrial dimension was measured at end-systole in the parasternal long-axis view and left ventricular ejection fraction was determined according to the recommendations of the North American Society of Echocardiography. In addition, left atrial volume was determined using the Simpson's rule in the 4 chamber view. Transmitral Doppler inflow velocities were recorded from the apical four-chamber view with the sample volume positioned between the tips of the mitral leaflets during quiet respiration.
The parameters derived from the transmitral velocity spectra were: peak velocity of the early (E) and atrial filling (A) waves, the corresponding velocity time integrals (VTIE and VTIA and the percentage of atrial contribution to total left ventricular filling. The deceleration slope of the E wave was also measured. The percentage of atrial contribution to total left ventricular filling was determined by dividing the VTIA by the total diastolic velocity time integral. The results of five consecutive heart cycles were averaged in each patient to obtain a justified value.
Analysis of variance for repeated measures (ANOVA) was used for the analysis of serial changes of continuous parameters within and between the randomized, assigned treatment arms, i.e. ribose vs placebo. Further comparison were subject to Bonferroni correction. In all cases, a p value s 0.05 was considered statistically significant.

[3] = system: subject with borderline blood pressure; experiment: Blood pressure in one subject with borderline hypertension given ribose; type: in vivo, human
From the text: As shown in Example 1, treatment with ribose improves diastolic cardiac function. Since hypertension is accompanied by left ventricular dysfunction, it is expected that the administration of ribose to patients experiencing hypertension with result in a benefit. One subject has been tested. Their blood pressure has been tested at borderline values of 130/90. Following daily administration of ribose at 5-10 grams per day, their blood pressure was lowered to as low as 108/78.

[4] = system: patients with chronic coronary artery disease and chronic heart failure; experiment: Semi-upright bicycle exercise test in the crossover study; type: in vivo, human; conditions: beginning vs end of the treatment period
From the text: as §1, with “protocol. The study consisted of two treatment periods, three weeks in duration. Initially, either ribose or placebo (dextrose) was administered three times a day with meals. Five grams of either ribose of or placebo was dissolved in approximately eight ounces of fluid shortly before administration. Following the initial treatment period, the patients were given no ribose or placebo treatment for one week as a washout period. […] Rate pressure product (RPP) was calculated using systolic blood pressure times heart rate and expressed in RPP units.” for “protocol.”

[5] = system: patients with chronic coronary artery disease and chronic heart failure; experiment: Quality of life (SF 36 form) and physical function in the crossover study; type: in vivo, human; conditions: oral, 5 g three times a day for three weeks
From the text: as §1, with “protocol. The study consisted of two treatment periods, three weeks in duration. Initially, either ribose or placebo (dextrose) was administered three times a day with meals. […] Measured objectives parameters of systolic and diastolic function were assessed with transthoracic echocardiography. Subjectively, quality of life using the SF36 form, and physical function (exercise tolerance) were assessed. All of the above parameters were assessed at pre- and post-treatment in both arms of the study. Quality of life was assessed in each patient using the SF 36 form. […]” for “protocol.”

[6] = system: patients with heart failure; patients with angina; conditions: cited from earlier work
congestive heart failure = conditions: 4 weeks of supplementation (Azuma et al 1983); cited from earlier work
[7] = 5 g three times a day for three weeks
[8] = 5 g three times a day for three weeks, p ≦ .005 vs dextrose placebo

Nc1nc2ncc(CNc3ccc(C(=O)N[C@@H](CCC(=O)O)C(=O)O)cc3)nc2c(=O)[nH]1 [Folic acid]
reduction of plasma homocysteine levels (plasma homocysteine; 250 pg/d dose (Brouwer et al. 1999)): 11%
reduction of plasma homocysteine levels (plasma homocysteine; 300 pg/d in healthy individuals over 5 weeks (Mansoor)): 20%
reduction of plasma homocysteine (plasma homocysteine; 300 pg/day plus 120 mg/day of vitamin B6 (Mansoor)): 32%
reduction of plasma homocysteine levels (plasma homocysteine; 500 pg/d dose (Brouwer et al. 1999)): 22%

O=C[C@H](O)[C@H](O)[C@H](O)CO [Ribose, D-Ribose]
benefit to patients with cardiovascular disease ([1]; 60 grams daily in four 15 gram doses for three days (Pliml 1992)): benefited
side effects ([1]; 60 grams daily in four 15 gram doses): hypoglycemia with concomitant dizziness, nausea and sweating; also recorded: abdominal distress and diarrhea
treadmill performance of angina patients ([1]; orally administered high doses (Pliml et al 1992)): increased
power output of athletes on exercise bikes ([1]; supplemental ribose (U.S. Pat. No. 6,159,942)): greater
atrial contribution to left ventricular filling as compared to placebo [2, 7]: higher
deceleration time of the E wave as compared to placebo [2, 7]: significant shorter
ejection fraction (EF) [2, 7]: 51.0 ± 7.3%
left atria volume as compared to placebo [2, 7]: significantly smaller
atrial contribution (Ac) ([2]; 5 g three times a day for three weeks, p < .01 vs dextrose placebo): 45.3 ± 9.2 &
deceleration time of the E wave (Edc) [2, 8]: 193.5 ± 45.9 ms
left ventricular systolic volume (LVVs) [2, 8]: 64.4 ± 24.8 mL
stroke volume index (SVI) [2, 8]: 2.63 ± .57 ml/body mass index
diastolic cardiac function ([2]; relatively short term, severe coronary artery disease and congestive heart failure): significantly improved
pressure-lowering effects in further studies ([3]; further studies, expected): expected to confirm the pressure-lowering effects
blood pressure after ribose ([3]; one subject, borderline values of 130/90 before, 5-10 grams per day daily): 108/78
mean maximal attained exercise level [4]: not changed
overall score of the quality of life index ([5]; SF 36 form): significant improvement; also recorded: enhanced
physical function [5]: significant improvement

N=C(N)NCCC[C@H](N)C(=O)O [arginine, L-arginine]
benefits for patients with heart failure ([6]; 5.6 to 12.6 g/day supplemental (Rector et al 1996)): increased blood flow, increased distances in a 6-minute walk test, and improved arterial compliance
exercise capacity in patients with angina ([6]; oral, 6 g/day for 3 days (Ceremuzynski et al 1997)): improved

NCCS(=O)(=O)O [taurine]
dyspnea, palpitation, crackles, edema, and New York Heart Association functional class (congestive heart failure): highly significant improvement
